Values belong to the molecule of their own block, whether it stands above or below them. Active and inactive are the calls of the source. The calls are words filed in the database; no cut-off is given here.
Assays:
[1] = Lipophilicity, logD of compound at pH 7.4 preincubated with octanol for 5 mins followed by phosphate buffer addition and measured after 1 hrs by shakeflask method based LC-MS/MS analysis; format: physicochemical; conditions: time 65 min
[2] = target: T1, Galectin-1 (Homo sapiens, UniProt P09382); test: Binding affinity to human galectin 1 assessed as dissociation constant incubated for 30 mins in presence of TDGA probe by fluorescence polarization assay
[3] = target: T2, Galectin-3 (Homo sapiens, UniProt P17931); test: Binding affinity to human galectin-3 assessed as dissociation constant by fluorescence polarization assay
[4] = Apparent permeability from apical to basolateral side in human Caco-2 cells at 10 uM incubated for 90 mins by LC-MS/MS analysis; format: ADME, cell-based
[5] = Apparent permeability from basolateral to apical side in human Caco-2 cells at 10 uM incubated for 90 mins by LC-MS/MS analysis; format: ADME, cell-based
[6] = Metabolic stability in human hepatocytes assessed as intrinsic clearance measured per 10^6 cells at 2 uM incubated for 15 to 120 mins by LC-MS/MS analysis; format: ADME, cell-based, Hepatocyte; conditions: time 15-120 min, read-out: CLH
[7] = Metabolic stability in mouse hepatocytes assessed as intrinsic clearance measured per 10^6 cells at 2 uM incubated for 15 to 120 mins by LC-MS/MS analysis; format: ADME, cell-based, Hepatocyte; conditions: time 15-120 min, read-out: CLH
[8] = Protein binding in human plasma assessed as unbound fraction at 2 uM incubated for 5 hrs by equilibrium dialysis based LC-MS/MS analysis; format: ADME, cell-free
[9] = Protein binding in mouse plasma assessed as unbound fraction at 2 uM incubated for 5 hrs by equilibrium dialysis based LC-MS/MS analysis; format: ADME, cell-free
[10] = system: Jurkat; test: Inhibition of galectin-1 induced apoptosis in human Jurkat T cells assessed as reduction in caspase-3 activation upto 24 uM incubated for 24 hrs by CellEvent caspase-3/7 green fluorescent detection reagent based imaging analysis; format: functional, cell-based
[11] = target: T1, Galectin-1; test: Binding affinity to galectin-1 (unknown origin) assessed as dissociation constant
[12] = target: T2, Galectin-3; test: Binding affinity to galectin-3 (unknown origin) assessed as dissociation constant
[13] = Cytotoxicity against human A549 cells assessed as inhibition of cell growth incubated for 72 hrs by MTT assay; format: toxicity, cell-based
[14] = target: T3, Galectin-4 (Homo sapiens, UniProt P56470); test: Binding affinity to N-terminal human Galectin-4 assessed as dissociation constant by fluorescence polarization assay
T3 sequence (P56470 whole entry): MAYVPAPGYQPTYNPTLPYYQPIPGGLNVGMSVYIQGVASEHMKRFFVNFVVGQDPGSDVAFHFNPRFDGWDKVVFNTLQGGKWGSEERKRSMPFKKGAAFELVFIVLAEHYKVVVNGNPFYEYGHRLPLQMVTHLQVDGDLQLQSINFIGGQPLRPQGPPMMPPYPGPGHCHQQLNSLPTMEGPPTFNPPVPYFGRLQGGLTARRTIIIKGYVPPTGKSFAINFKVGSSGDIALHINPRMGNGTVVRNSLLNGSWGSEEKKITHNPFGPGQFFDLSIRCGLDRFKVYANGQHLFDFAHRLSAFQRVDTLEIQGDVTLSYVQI

[15] = target: T3, Galectin-4; test: Binding affinity to C-terminal human Galectin-4 assessed as dissociation constant by fluorescence polarization assay
[16] = target: Galectin-7 (Homo sapiens, UniProt P47929); test: Binding affinity to human Galectin-7 assessed as dissociation constant by fluorescence polarization assay
[17] = target: T4, Galectin-8 (Homo sapiens, UniProt O00214); test: Binding affinity to N-terminal human Galectin-8 assessed as dissociation constant by fluorescence polarization assay
T4 sequence (O00214 whole entry): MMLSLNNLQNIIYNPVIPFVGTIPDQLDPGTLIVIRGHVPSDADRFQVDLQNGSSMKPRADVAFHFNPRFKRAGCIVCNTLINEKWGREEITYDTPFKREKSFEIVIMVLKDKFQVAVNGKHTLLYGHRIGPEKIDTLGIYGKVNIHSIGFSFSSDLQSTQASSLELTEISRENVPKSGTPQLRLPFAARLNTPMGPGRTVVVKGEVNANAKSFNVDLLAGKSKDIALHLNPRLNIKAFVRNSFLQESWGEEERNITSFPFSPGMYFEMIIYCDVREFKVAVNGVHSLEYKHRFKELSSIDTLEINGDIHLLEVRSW

[18] = target: T4, Galectin-8; test: Binding affinity to C-terminal human Galectin-8 assessed as dissociation constant by fluorescence polarization assay
[19] = target: T5, Galectin-9 (Homo sapiens, UniProt O00182); test: Binding affinity to N-terminal human Galectin-9 assessed as dissociation constant by fluorescence polarization assay
[20] = target: T5, Galectin-9; test: Binding affinity to C-terminal human Galectin-9 assessed as dissociation constant by fluorescence polarization assay
[21] = target: T6, Galectin-1 (Mus musculus, UniProt P16045); test: Binding affinity to mouse Galectin-1 assessed as dissociation constant incubated for 30 mins in the presence of TDGA probe by fluorescence polarization assay
[22] = target: T7, Galectin-3 (Mus musculus, UniProt P16110); test: Binding affinity to mouse Galectin-3 assessed as dissociation constant by fluorescence polarization assay
[23] = target: T1, Galectin-1; test: Binding affinity to human galectin-1 assessed as dissociation constant by SPR analysis
[24] = target: T6, Galectin-1; test: Binding affinity to mouse full-length galectin-1 assessed as dissociation constant by SPR analysis
[25] = target: T2, Galectin-3; test: Binding affinity to human galectin-3 assessed as dissociation constant by SPR analysis
[26] = target: T7, Galectin-3; test: Binding affinity to mouse full-length galectin-3 assessed as dissociation constant by SPR analysis
[27] = system: A549; test: Cytotoxicity against human A549 cells assessed as reduction in cell viability incubated for 72 hrs by MTT assay relative to control; format: toxicity, cell-based; conditions: a549, 72 h
[28] = system: Jurkat; test: Inhibition of galectin-1 induced apoptosis in human Jurkat T cells assessed as reduction in caspase-3 activation incubated for 24 hrs by CellEvent caspase-3/7 green fluorescent detection reagent based imaging analysis
[29] = Clearance in C57BL/6 mouse at 1 mg/kg, iv measured upto 8 hrs by HPLC analysis; format: ADME, organism-based; conditions: in vivo
[30] = Volume of distribution at steady state in C57BL/6 mouse at 1 mg/kg, iv measured upto 8 hrs by HPLC analysis; format: ADME, organism-based; conditions: in vivo, read-out: Vdss
[31] = Tmax in C57BL/6 mouse at 10 mg/kg, po or 1 mg/kg, iv by HPLC analysis; format: ADME, organism-based; conditions: in vivo
[32] = Cmax in C57BL/6 mouse at 10 mg/kg, po or 1 mg/kg, iv by HPLC analysis; format: ADME, organism-based; parameters: dose 10 mg/kg, route po; conditions: in vivo
[33] = AUCinfinity in C57BL/6 mouse at 10 mg/kg, po or 1 mg/kg, iv by HPLC analysis; format: ADME, organism-based; parameters: dose 10 mg/kg, route po; conditions: in vivo
[34] = Oral bioavailability in C57BL/6 mouse at 10 mg/kg measured upto 24 hrs by HPLC analysis; format: ADME, organism-based; conditions: in vivo

T1 sequence (P09382 whole entry): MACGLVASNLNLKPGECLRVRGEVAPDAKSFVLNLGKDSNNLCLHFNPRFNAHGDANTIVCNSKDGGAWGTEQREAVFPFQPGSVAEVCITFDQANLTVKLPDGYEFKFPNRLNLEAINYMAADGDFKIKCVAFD
T2 sequence (P17931 whole entry): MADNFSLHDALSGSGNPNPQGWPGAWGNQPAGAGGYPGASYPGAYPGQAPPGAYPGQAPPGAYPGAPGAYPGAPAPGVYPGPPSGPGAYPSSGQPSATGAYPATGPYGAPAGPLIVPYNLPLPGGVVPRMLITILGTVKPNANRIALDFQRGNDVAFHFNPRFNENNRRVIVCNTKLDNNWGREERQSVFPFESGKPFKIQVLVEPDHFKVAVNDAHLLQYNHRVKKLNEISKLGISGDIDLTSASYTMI
T6 sequence (P16045 whole entry): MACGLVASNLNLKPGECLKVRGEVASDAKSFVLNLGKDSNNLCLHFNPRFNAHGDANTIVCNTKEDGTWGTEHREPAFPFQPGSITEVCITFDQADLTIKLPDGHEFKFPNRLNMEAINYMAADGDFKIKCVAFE
T7 sequence (P16110 whole entry): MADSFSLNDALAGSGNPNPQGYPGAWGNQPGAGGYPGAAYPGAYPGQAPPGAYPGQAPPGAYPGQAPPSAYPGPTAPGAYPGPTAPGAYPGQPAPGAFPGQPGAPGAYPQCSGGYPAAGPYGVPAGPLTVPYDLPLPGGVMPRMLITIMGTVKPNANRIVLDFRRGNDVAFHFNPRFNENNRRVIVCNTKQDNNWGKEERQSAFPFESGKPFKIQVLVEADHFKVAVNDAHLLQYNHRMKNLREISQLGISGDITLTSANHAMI
T5 sequence (O00182 whole entry): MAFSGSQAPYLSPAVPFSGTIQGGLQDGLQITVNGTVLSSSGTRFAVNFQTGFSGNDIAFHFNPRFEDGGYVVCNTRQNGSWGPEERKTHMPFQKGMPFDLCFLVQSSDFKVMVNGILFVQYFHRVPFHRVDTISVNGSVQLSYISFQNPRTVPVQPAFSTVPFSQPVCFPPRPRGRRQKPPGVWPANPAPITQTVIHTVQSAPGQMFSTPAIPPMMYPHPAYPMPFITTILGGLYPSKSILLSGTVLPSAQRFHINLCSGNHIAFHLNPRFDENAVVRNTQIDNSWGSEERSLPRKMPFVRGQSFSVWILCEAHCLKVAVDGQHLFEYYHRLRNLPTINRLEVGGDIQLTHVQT
Chain of Galectin-7 (P47929 whole entry): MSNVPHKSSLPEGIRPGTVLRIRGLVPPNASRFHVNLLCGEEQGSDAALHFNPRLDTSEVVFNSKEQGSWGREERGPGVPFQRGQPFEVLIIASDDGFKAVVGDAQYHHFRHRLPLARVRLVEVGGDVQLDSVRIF

SMILES: CN(C)CCNC(=O)COc1c2cccc1Cc1cccc(c1OCC(=O)NCCN(C)C)Cc1cccc(c1OCC(=O)NCCN(C)C)Cc1cccc(c1OCC(=O)NCCN(C)C)C2
inhibition [10]: inactive

SMILES: OC[C@H]1O[C@H](Sc2ccc(Cl)c(Cl)c2)[C@H](O)[C@@H](n2cc(-c3cc(F)c(F)c(F)c3)nn2)[C@H]1O
Papp A→B at 1.5 h, 10 µM [4]: 19 ×10⁻⁶ cm/s
Papp B→A at 1.5 h, 10 µM [5]: 20 ×10⁻⁶ cm/s

SMILES: OC[C@H]1O[C@@H](S[C@@H]2O[C@H](CO)[C@H](O)[C@H](n3cc(-c4ccsc4)nn3)[C@H]2O)[C@H](O)[C@@H](n2cc(-c3ccsc3)nn2)[C@H]1O
Kd [11]: < 10 nM
Kd [12]: 65 nM

SMILES: OC[C@H]1O[C@H](Sc2cc(Cl)c(F)c(Cl)c2)[C@H](O)[C@@H](n2cc(-c3nccs3)nn2)[C@H]1O
IC50 at 72 h [13]: > 90000 nM
logD at 1 h [1]: 3.1
Kd [2]: 410 nM
Kd [3]: 2700 nM
Papp A→B at 1.5 h, 10 µM [4]: 11 ×10⁻⁶ cm/s
Papp B→A at 1.5 h, 10 µM [5]: 31 ×10⁻⁶ cm/s
hepatocyte CLint at 2 µM [6]: < 1 µL/min/1e6 cells
hepatocyte CLint at 2 µM [7]: < 1.5 µL/min/1e6 cells
fraction unbound at 5 h, 2 µM [8]: 0.038
fraction unbound at 5 h, 2 µM [9]: 0.013
Kd [14]: 37000 nM
Kd [15]: 2500 nM
Kd [16]: 60000 nM
Kd [17]: 65000 nM
Kd [18]: 130000 nM
Kd [19]: 16000 nM
Kd [20]: 23000 nM
Kd [21]: 230 nM
Kd [22]: 5800 nM
Kd [23]: 644 nM
Kd [24]: 363 nM
Kd [25]: 62600 nM
Kd [26]: 70400 nM
Activity [27]: 46.6%
IC50 [28]: 2300 nM
clearance [29]: 7.5 mL/min/kg
Vd [30]: 0.4 L/kg
Tmax [31]: 30 min
Cmax [32]: 6900 ng/mL
AUC(0-inf) [33]: 3200 ng·h/mL
bioavailability [34]: > 99%

SMILES: OC[C@H]1O[C@H](Sc2cc(Cl)c(F)c(Cl)c2)[C@H](O)[C@@H](n2cc(-c3cccs3)nn2)[C@H]1O
Kd [2]: 970 nM
Kd [3]: 1500 nM

SMILES: OC[C@H]1O[C@H](Sc2cncc(Br)c2)[C@H](O)[C@@H](n2cc(-c3ccsc3)nn2)[C@H]1O
logD at 1 h [1]: 2
Kd [2]: 680 nM
Kd [3]: 1700 nM
Papp A→B at 1.5 h, 10 µM [4]: 4.5 ×10⁻⁶ cm/s
Papp B→A at 1.5 h, 10 µM [5]: 31 ×10⁻⁶ cm/s

Continued by falling Kd [2], values first:

Kd [2]: 22000 nM
Kd [3]: 3000 nM
SMILES: OC[C@H]1O[C@H](Sc2cc(Cl)c(F)c(Cl)c2)[C@H](O)[C@@H](n2cc(-c3cncs3)nn2)[C@H]1O

Kd [2]: 2700 nM
Kd [3]: 11000 nM
SMILES: OC[C@H]1O[C@H](Sc2ccc(Cl)c(Cl)c2)[C@H](O)[C@@H](n2cc(-c3ncco3)nn2)[C@H]1O

Kd [2]: 2000 nM
Kd [3]: 3400 nM
SMILES: OC[C@H]1O[C@H](Sc2ccc(Cl)c(Cl)c2)[C@H](O)[C@@H](n2cc(-c3ncsn3)nn2)[C@H]1O

Kd [2]: 1700 nM
Kd [3]: 1300 nM
SMILES: OC[C@H]1O[C@H](Sc2ccc(Cl)c(Cl)c2)[C@H](O)[C@@H](n2cc(-c3nncs3)nn2)[C@H]1O

logD at 1 h [1]: 2.3
Kd [2]: 640 nM
Kd [3]: 2100 nM
Papp A→B at 1.5 h, 10 µM [4]: 0.4 ×10⁻⁶ cm/s
Papp B→A at 1.5 h, 10 µM [5]: 25 ×10⁻⁶ cm/s
SMILES: OC[C@H]1O[C@H](Sc2ccc(Cl)c(Cl)c2)[C@H](O)[C@@H](n2cc(-c3ncc[nH]3)nn2)[C@H]1O

logD at 1 h [1]: > 4
Kd [2]: 350 nM
Kd [3]: 8000 nM
Papp A→B at 1.5 h, 10 µM [4]: 6 ×10⁻⁶ cm/s
Papp B→A at 1.5 h, 10 µM [5]: 50 ×10⁻⁶ cm/s
hepatocyte CLint at 2 µM [6]: 1.1 µL/min/1e6 cells
hepatocyte CLint at 2 µM [7]: < 1.5 µL/min/1e6 cells
fraction unbound at 5 h, 2 µM [8]: 0.068
fraction unbound at 5 h, 2 µM [9]: 0.033
SMILES: OC[C@H]1O[C@H](Sc2ccc(Cl)c(Cl)c2)[C@H](O)[C@@H](n2cc(-c3cscn3)nn2)[C@H]1O

logD at 1 h [1]: 2.9
Kd [2]: 330 nM
Kd [3]: 2900 nM
Papp A→B at 1.5 h, 10 µM [4]: 9 ×10⁻⁶ cm/s
Papp B→A at 1.5 h, 10 µM [5]: 30 ×10⁻⁶ cm/s
hepatocyte CLint at 2 µM [6]: < 1 µL/min/1e6 cells
hepatocyte CLint at 2 µM [7]: < 1.5 µL/min/1e6 cells
fraction unbound at 5 h, 2 µM [8]: 0.033
fraction unbound at 5 h, 2 µM [9]: 0.015
SMILES: OC[C@H]1O[C@H](Sc2cc(Cl)c(F)c(Cl)c2)[C@H](O)[C@@H](n2cc(-c3cscn3)nn2)[C@H]1O

logD at 1 h [1]: 3.6
Kd [2]: 280 nM
Kd [3]: 2100 nM
Papp A→B at 1.5 h, 10 µM [4]: 10 ×10⁻⁶ cm/s
Papp B→A at 1.5 h, 10 µM [5]: 18 ×10⁻⁶ cm/s
hepatocyte CLint at 2 µM [6]: 4.9 µL/min/1e6 cells
hepatocyte CLint at 2 µM [7]: 15 µL/min/1e6 cells
fraction unbound at 5 h, 2 µM [8]: 0.014
fraction unbound at 5 h, 2 µM [9]: 0.015
SMILES: OC[C@H]1O[C@H](Sc2ccc(Cl)c(Cl)c2)[C@H](O)[C@@H](n2cc(-c3ccsc3)nn2)[C@H]1O

— ChEMBL document CHEMBL5356960, “Discovery of Selective and Orally Available Galectin-1 Inhibitors” (J Med Chem, 2023)
